The target of test [1] is MAP kinase-interacting serine/threonine-protein kinase 1 (Homo sapiens) (UniProt Q9BUB5). The test is described as follows: Selectivity interaction (KinomeScan (DiscoverX)) EUB0000695a MKNK1. The settings on record: at 100 nM.
The target in test [2] is T1, MAP kinase-activated protein kinase 5 (Homo sapiens) (UniProt Q8IW41).
T1 sequence (whole entry): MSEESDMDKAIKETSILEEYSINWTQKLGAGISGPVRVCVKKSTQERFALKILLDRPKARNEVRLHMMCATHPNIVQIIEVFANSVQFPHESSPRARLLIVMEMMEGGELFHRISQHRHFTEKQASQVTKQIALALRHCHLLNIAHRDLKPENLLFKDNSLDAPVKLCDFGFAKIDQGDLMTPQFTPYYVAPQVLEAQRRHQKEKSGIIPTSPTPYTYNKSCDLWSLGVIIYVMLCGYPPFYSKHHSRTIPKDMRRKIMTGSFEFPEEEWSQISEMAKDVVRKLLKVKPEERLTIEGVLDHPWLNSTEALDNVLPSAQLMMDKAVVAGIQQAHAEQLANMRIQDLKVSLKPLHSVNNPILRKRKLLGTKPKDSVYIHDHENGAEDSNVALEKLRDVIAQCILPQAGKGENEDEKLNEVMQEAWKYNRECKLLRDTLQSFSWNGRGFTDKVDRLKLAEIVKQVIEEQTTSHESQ
Briefly: Selectivity interaction (KinomeScan (DiscoverX)) EUB0000607a MAPKAPK5. The settings on record: at 10 µM.

For test [3], the target named is T2, Serine/threonine-protein kinase Nek9 (Homo sapiens) (UniProt Q8TD19).
T2 sequence (whole entry): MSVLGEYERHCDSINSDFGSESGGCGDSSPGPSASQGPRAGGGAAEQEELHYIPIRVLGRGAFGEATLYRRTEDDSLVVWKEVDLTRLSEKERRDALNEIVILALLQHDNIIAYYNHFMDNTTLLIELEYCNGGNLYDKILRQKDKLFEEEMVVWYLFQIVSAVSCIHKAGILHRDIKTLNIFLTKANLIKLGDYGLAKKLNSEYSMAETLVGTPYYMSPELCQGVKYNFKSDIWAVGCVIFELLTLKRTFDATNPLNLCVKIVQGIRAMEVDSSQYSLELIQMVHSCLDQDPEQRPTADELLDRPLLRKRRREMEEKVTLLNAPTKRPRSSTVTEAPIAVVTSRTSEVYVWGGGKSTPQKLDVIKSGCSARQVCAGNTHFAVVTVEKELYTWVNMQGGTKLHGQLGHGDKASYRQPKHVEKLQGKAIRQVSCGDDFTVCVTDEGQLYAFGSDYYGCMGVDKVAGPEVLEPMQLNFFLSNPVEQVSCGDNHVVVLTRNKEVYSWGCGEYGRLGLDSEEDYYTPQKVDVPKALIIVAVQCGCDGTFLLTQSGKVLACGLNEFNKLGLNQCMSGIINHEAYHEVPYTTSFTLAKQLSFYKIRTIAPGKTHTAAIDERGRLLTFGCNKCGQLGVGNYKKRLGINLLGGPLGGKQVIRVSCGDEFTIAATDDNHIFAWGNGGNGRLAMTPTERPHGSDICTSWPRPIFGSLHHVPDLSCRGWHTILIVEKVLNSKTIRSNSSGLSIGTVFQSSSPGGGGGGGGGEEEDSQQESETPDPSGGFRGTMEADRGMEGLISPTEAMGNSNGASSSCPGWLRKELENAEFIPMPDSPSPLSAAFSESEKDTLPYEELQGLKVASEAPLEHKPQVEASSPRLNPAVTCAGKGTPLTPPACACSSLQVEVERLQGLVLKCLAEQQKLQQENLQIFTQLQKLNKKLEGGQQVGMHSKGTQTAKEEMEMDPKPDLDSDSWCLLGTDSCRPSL
The note with it: at 10 µM.

Test [4] deals with Tyrosine-protein kinase JAK1 (Homo sapiens, UniProt P23458). The test is described as follows: Selectivity interaction (ActivX KiNativ screen (kinase selectivity in THP-1 cell lysates)) EUB0000639a JAK1. Type of test: subcellular. The settings on record: lysate, at 0.04 µM.
Chain of Tyrosine-protein kinase JAK1 (P23458 whole entry): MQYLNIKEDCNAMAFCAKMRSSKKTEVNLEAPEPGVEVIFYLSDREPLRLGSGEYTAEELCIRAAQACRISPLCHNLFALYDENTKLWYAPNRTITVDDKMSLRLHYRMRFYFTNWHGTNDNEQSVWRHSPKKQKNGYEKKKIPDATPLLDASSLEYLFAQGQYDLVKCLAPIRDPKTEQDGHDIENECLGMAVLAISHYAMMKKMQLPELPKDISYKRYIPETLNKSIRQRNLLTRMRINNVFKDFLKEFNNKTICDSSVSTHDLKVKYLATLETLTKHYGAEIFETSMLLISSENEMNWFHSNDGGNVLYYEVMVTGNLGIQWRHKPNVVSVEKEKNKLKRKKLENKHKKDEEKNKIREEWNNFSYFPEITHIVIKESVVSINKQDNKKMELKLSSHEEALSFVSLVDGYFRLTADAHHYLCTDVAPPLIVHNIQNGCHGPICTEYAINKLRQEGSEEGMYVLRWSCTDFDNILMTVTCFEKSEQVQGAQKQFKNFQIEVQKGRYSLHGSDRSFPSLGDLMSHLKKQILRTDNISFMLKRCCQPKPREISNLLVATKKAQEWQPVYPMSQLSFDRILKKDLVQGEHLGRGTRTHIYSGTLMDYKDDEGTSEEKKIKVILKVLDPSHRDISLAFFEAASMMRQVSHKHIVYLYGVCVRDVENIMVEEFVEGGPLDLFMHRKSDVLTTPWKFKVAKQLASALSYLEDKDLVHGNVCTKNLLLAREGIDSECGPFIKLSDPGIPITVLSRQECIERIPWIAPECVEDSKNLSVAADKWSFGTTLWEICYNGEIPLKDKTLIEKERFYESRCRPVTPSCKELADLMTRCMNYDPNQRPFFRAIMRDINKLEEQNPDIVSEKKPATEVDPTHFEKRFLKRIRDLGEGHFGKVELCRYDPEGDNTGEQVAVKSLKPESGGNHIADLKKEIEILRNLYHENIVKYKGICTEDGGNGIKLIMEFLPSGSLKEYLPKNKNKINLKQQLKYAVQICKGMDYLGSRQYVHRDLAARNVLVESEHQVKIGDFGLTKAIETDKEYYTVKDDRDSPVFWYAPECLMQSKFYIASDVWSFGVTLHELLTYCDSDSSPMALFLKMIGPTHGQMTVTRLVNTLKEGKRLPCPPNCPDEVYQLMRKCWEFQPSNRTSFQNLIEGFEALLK
Test [5] deals with Dual specificity mitogen-activated protein kinase kinase 2 (Homo sapiens) (UniProt P36507). The test is described as follows: Selectivity interaction (Kinase panel (Invitrogen)) EUB0000639a MAP2K2. The settings on record: at 200 nM.
Chain of Dual specificity mitogen-activated protein kinase kinase 2 (Homo sapiens) (P36507 whole entry): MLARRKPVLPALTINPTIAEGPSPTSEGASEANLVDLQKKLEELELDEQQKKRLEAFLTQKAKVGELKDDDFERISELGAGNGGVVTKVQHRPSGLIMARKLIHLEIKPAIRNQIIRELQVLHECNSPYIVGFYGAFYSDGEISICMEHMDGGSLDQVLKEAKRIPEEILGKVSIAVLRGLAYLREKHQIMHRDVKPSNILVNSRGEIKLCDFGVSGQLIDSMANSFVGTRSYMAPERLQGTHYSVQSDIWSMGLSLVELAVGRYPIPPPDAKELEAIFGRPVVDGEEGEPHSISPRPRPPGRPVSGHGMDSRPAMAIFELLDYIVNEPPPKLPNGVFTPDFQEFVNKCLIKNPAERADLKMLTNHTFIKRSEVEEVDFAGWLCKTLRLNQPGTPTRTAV
Test [6] deals with TGF-beta receptor type-2 (Homo sapiens) (UniProt P37173). Briefly: Selectivity interaction (Ambit KINOMEscan and KiNATiv profiling in Jurkat cells) EUB0000090b TGFBR2. It counts as cell-based. The note with it: at 1 µM.
Chain of TGF-beta receptor type-2 (Homo sapiens) (P37173 whole entry): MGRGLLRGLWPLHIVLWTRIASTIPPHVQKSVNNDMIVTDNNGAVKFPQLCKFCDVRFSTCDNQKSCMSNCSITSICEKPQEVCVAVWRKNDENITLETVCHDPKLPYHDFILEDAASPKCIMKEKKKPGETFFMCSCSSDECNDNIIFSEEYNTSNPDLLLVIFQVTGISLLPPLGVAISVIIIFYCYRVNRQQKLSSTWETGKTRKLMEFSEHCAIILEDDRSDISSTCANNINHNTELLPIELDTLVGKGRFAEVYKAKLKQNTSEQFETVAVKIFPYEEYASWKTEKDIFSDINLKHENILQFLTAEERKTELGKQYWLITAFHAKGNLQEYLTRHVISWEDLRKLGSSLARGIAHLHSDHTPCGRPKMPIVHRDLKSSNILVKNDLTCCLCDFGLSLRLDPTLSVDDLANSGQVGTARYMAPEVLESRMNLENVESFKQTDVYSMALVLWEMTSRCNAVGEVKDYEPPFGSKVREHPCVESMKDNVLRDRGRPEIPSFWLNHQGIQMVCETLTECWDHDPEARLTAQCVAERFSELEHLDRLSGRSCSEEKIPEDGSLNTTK
In test [7] the target is T3, Serine/threonine-protein kinase ULK3 (Homo sapiens) (UniProt Q6PHR2).
T3 sequence (whole entry): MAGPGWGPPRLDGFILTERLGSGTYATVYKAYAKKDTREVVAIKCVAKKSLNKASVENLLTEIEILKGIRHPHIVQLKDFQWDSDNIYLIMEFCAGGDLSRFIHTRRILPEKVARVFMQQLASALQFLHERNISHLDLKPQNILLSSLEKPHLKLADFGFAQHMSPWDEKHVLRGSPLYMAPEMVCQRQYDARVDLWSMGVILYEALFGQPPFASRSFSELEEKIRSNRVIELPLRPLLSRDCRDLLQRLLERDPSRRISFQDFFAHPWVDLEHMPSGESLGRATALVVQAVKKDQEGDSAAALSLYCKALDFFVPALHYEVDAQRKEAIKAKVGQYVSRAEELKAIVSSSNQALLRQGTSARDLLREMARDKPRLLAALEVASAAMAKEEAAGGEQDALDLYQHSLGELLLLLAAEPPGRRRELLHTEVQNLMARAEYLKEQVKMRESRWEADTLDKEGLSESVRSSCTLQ
Briefly: Selectivity interaction (Ambit KINOMEscan and KiNATiv profiling in Jurkat cells) EUB0000090b ULK3. Type of test: cell-based. The settings on record: at 1 µM.

For test [8], the target named is Cyclin-dependent kinase 7 (Homo sapiens, UniProt P50613). Briefly: Selectivity interaction (KinomeScan (DiscoverX)) EUB0000655a CDK7. The note with it: at 10 µM.
Chain of Cyclin-dependent kinase 7 (P50613 whole entry): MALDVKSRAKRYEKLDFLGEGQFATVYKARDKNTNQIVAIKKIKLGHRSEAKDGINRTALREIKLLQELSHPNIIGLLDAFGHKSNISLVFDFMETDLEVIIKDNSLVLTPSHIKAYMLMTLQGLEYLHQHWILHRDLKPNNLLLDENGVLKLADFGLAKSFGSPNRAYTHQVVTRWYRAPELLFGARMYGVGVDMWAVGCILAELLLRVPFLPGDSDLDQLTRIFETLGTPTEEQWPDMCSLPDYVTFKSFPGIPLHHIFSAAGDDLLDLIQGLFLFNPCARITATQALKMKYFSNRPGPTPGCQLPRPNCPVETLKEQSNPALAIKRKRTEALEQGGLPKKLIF
In test [9] the target is T4, Serine/threonine-protein kinase NLK (Homo sapiens) (UniProt Q9UBE8).
T4 sequence (whole entry): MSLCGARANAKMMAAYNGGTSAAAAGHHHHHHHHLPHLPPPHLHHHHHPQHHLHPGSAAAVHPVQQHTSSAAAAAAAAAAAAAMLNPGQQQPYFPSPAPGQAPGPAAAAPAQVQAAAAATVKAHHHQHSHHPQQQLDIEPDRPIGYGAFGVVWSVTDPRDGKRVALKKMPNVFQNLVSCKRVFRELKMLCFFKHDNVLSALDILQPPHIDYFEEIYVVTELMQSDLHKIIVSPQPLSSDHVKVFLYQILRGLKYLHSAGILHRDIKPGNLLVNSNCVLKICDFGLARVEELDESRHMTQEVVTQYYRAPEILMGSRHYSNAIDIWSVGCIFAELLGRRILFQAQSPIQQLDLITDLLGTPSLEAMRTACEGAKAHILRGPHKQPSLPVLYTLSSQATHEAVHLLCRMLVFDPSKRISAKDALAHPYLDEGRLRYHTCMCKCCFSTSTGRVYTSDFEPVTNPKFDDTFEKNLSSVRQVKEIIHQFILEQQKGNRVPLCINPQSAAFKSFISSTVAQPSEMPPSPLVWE
The test is described as follows: Selectivity interaction (KinomeScan (DiscoverX)) EUB0000229b NLK. The note with it: at 10 µM.

Chain of MAP kinase-interacting serine/threonine-protein kinase 1 (Homo sapiens) (Q9BUB5 whole entry, looked up): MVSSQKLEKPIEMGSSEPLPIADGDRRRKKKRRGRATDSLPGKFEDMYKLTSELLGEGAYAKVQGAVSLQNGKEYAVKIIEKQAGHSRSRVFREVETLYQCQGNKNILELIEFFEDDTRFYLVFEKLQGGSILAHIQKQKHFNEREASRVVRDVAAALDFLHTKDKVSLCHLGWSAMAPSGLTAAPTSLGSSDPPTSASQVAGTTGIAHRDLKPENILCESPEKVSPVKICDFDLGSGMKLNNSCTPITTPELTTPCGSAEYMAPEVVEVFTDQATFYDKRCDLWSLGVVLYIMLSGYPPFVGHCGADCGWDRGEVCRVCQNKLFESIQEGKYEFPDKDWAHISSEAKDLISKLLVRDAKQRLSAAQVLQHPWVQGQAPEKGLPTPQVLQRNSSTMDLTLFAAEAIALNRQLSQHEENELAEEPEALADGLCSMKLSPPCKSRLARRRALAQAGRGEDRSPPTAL

In test [1], `Cc1cc(F)c(C(=O)Nc2cccc(-c3nncn3C(C)C)n2)cc1-n1cnc(C2CC2)c1` gave a % of control of 96%. `CNC(=O)Nc1ccc(-c2nc(N3CC4CCC(C3)O4)c3cnn(C4CCC5(CC4)OCCO5)c3n2)cc1`: the % of control in test [2] was 100%. As for `Cc1cc([C@@H](C)Nc2ccccc2C(=O)O)c2nc(N3CCOCC3)cc(=O)n2c1` [AZD-6482], the % of control in test [3] was found to be 100%. Take `CC[C@@H]1[C@H](F)C(=O)N[C@@H]1COc1nccc2cc(C(N)=O)c(OC)cc12` [ZIMLOVISERTIB]: the % of inhibition in [4] was 14.8%; in test [5], 5.73%. On to `CN(C)C/C=C/C(=O)Nc1ccc(C(=O)N2CCCC(Nc3ncc(Cl)c(-c4c[nH]c5ccccc45)n3)C2)cc1` (centres undefined), for which the % of control in test [6] and in test [7] was 87% each time. As to `CN(C)CCOc1ccc(-c2nc(-c3ccncc3)c(-c3ccc4c(c3)CC/C4=N\O)[nH]2)cc1`, in [8], the % of control turned out to be 93%. As for `COc1cc(N(C)c2ccnc3ccc(C(F)(F)F)cc23)cc(OC)c1OC`, the % binding in test [9] is 64%.
